Target: Sodium channel protein type 9 subunit alpha (Homo sapiens, UniProt Q15858)
Test: Radioligand Binding Assay
Conditions: pH 7.4; 25 °C
Method: Binding of this radioligand was preformed in 5 mL borosilicate glass test tubes at room temperature. […] Non-specific binding was determined in the presence of 1 uM unlabelled compound. […] [3H]compound bound to filters was quantified by liquid scintillation counting.

Sequence of Sodium channel protein type 9 subunit alpha (Q15858 whole entry): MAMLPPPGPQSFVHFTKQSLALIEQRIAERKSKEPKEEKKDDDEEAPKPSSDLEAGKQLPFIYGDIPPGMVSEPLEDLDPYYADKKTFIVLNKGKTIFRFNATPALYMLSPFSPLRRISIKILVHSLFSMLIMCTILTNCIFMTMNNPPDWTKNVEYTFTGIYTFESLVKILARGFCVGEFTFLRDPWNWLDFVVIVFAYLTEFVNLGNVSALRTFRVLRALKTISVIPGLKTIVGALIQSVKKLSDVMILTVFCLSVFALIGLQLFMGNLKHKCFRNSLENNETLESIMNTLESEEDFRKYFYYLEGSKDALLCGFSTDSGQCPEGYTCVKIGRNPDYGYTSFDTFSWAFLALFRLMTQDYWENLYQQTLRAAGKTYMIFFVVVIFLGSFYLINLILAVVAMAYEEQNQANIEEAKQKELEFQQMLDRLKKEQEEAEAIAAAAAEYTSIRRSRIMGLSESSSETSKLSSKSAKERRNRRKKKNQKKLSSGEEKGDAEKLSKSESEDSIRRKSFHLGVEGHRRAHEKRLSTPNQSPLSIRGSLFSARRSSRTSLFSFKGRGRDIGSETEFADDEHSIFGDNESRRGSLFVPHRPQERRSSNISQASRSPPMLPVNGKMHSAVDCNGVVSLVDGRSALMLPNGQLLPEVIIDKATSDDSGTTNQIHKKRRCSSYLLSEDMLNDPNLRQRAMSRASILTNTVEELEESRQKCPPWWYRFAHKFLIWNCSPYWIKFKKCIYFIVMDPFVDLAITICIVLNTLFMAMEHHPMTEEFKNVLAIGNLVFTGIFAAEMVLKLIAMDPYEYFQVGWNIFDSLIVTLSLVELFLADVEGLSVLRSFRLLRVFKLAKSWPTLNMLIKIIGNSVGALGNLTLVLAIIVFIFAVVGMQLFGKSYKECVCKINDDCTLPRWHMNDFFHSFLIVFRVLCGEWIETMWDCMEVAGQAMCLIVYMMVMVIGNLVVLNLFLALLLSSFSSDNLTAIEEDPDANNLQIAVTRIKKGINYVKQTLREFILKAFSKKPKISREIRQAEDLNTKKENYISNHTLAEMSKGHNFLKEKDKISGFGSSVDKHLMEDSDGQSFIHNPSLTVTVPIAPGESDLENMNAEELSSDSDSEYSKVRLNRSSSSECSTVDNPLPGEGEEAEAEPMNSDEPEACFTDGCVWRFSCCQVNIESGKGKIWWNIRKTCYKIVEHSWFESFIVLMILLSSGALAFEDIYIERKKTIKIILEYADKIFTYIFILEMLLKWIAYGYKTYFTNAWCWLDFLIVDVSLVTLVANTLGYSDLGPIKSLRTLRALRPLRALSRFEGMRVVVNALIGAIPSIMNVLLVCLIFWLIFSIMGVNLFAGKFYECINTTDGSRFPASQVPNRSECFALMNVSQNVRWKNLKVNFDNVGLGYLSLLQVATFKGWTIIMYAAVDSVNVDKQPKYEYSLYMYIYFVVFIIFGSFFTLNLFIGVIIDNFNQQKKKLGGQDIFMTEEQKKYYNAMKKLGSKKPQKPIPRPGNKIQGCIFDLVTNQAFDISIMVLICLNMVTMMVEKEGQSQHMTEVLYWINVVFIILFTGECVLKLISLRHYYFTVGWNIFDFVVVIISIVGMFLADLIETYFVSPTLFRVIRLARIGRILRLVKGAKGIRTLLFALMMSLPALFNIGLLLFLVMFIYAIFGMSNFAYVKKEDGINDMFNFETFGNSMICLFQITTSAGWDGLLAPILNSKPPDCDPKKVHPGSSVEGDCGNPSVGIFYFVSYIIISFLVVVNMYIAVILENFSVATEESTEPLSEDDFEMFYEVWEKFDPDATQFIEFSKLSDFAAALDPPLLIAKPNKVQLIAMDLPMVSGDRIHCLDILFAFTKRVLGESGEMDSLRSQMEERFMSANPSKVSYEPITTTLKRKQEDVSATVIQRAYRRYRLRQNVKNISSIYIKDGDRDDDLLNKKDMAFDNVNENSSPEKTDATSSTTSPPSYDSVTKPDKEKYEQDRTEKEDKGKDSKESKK

Row | SMILES | IC50
1 | CS(=O)(=O)NC(=O)c1cc(C2CC2)c(CN2CCC(Oc3ccc(Cl)cc3)CC2)cc1F [US9694002, 503] | 30 nM
2 | O=C(NS(=O)(=O)C1CC1)c1cc(C2CC2)c(CN2CCC(Oc3ccc(Cl)cc3)CC2)cc1F [US9694002, 504] | 16 nM

From BindingDB's records for patent US9694002 (Genentech Inc, 2017)
